{"source": "patent US12528816B2", "about": "“Substituted imidazo [1,2-b] pyridazines and [1, 2, 4] triazolo [ 4,3-b] pyridazines as camkii inhibitors” (Cardurion Pharmaceuticals, INC., priority 2020, dated 2026)"}
{"biological_target": "T1, human CaMKIIδ (Homo sapiens, UniProt Q13557)", "T1 construct": "Full-length, glutathione-S-transferase(GST)-tagged, human CaMKIIδ was purchased from Carna Biosciences; purchased Carna Biosciences (CaMKIIδ); Wako Pure Chemical Industries (calmodulin) 02-111", "test": "Evaluation of in vitro CaMKII inhibitory activity (binding assay, TR-FRET)", "settings": "human CaMKIIδ, TR-FRET binding assay; class symbols A/B/C; read-out: Act (CaMKII inhibitory activity, binding assay)", "procedure": "(§1) Evaluation of In Vitro CaMKII Inhibitory Activity (Binding Assay)\n(§2) In vitro CaMKIIδ inhibitory activity was evaluated by a binding assay.\n(§3) Full-length bovine calmodulin was purchased from Wako Pure Chemical Industries (Osaka, Japan). Terbium-labeled anti-GST anti body (Tb-anti-GST Ab) was purchased from Life Technologies (Carlsbad, CA, USA). Fluorescent probe ligand, 5,5-difluoro-7,9-dimethyl-3-(3-oxo-3-((3-((4-(3-(piperazin-1-yl)phenyl)pyrimidin-2-yl)amino)phenyl)amino) propyl)-5H-dipyrrolo[1,2-c:2′,1′-f]\n(§4) Time-resolved fluorescence resonance energy transfer (TR-FRET) assay\n(§5) The fluorescent probe ligand, 5,5-difluoro-7,9-dimethyl-3-(3-oxo-3-((3-((4-(3-(piperazin-1-yl)phenyl)pyrimidin-2-yl)amino)phenyl)amino) propyl)-5H-dipyrrolo[1,2-c:2′,1′-f] […] After shaded incubation of the protein-probe mixture on ice for 30 min, the premix was dispensed in the assay plate including test inhibitors with 4 fold dilution series of eight concentrations. After 1 hr incubation at room temperature, TR-FRET signals were measured in duplicate using an EnVision microplate reader (Perkin Elmer, Waltham, MA, USA).\n(§6) The half maximal inhibitory concentration (IC50) of test compounds was calculated by fitting the data with the logistic equation using XLfit (IDBS, Guildford, UK).", "units": {"IC50": "nM"}}
{"smiles": "C[C@@H](Cn1cnnn1)Oc1cc(-c2ccc3ncc(-c4cccc(OCC5CCC5)c4C#N)n3n2)ccc1F", "note": "[compound 210]", "IC50": "< 10"}
{"smiles": "C[C@@H](Cn1cnnn1)Oc1cc(-c2ccn3ncc(-c4ccc[nH]c4=O)c3n2)ccc1F", "note": "[compound 167]", "IC50": "< 10"}
{"smiles": "COC(=O)c1cccc(-c2cnn3ccc(-c4ccc(F)c(O[C@@H](C)Cn5cnnn5)c4)nc23)c1Cl", "note": "[compound 128]", "IC50": "10 to 100"}
{"smiles": "C[C@@H](Cn1cnnn1)Oc1cc(-c2ccn3ncc(-c4cc(F)ccc4C#N)c3n2)ccc1F", "note": "[compound 157]", "IC50": "< 10"}
{"smiles": "C[C@@H](Cn1cnnn1)Oc1cc(-c2ccc3ncc(-c4cc(C(=O)O)ccc4C#N)n3n2)ccc1F", "note": "[compound 147]", "IC50": "10 to 100"}
{"smiles": "CCN(CC)CCNC(=O)c1ccnc(-n2cnc3ccc(-c4ccc(F)c(O[C@@H](C)Cn5cnnn5)c4)nc32)c1", "note": "[compound 117]", "IC50": "< 10"}
{"smiles": "C[C@@H](Cn1cnnn1)Oc1cc(-c2ccn3ncc(-c4ccc(Cl)cc4)c3n2)ccc1F", "note": "[compound 135]", "IC50": "10 to 100"}
{"smiles": "CNC(=O)c1cccc(-n2cnc3ccc(-c4ccc(F)c(O[C@@H](C)Cn5cnnn5)c4)nc32)c1", "note": "[compound 115]", "IC50": "< 10"}
{"smiles": "CC(C)c1ccc(-c2cnn3ccc(-c4ccc(F)c(O[C@@H](C)Cn5cnnn5)c4)nc23)cc1", "note": "[compound 53]", "IC50": "> 100"}
{"smiles": "C[C@@H](Cn1cnnn1)Oc1cccc(-c2ccn3ncc(-c4cccc(C(=O)NCCCN5CCCC5=O)c4)c3n2)c1", "note": "[compound 74]", "IC50": "< 10"}
{"smiles": "C[C@@H](Cn1cnnn1)Oc1cc(-c2ccn3ncc(-c4ccc(C#N)s4)c3n2)ccc1F", "note": "[compound 139]", "IC50": "< 10"}
{"smiles": "C[C@@H](Cn1cnnn1)Oc1cc(-c2ccc3ncn(-c4cnn(C(=O)OC(C)(C)C)c4)c3n2)ccc1F", "note": "[compound 118]", "IC50": "< 10"}
{"smiles": "C[C@@H](Cn1cnnn1)Oc1cc(-c2ccn3ncc(-c4ccccc4C(F)(F)F)c3n2)ccc1F", "note": "[compound 129]", "IC50": "> 100"}
{"smiles": "COCCOCCOCCOc1cccc(-c2cnc3ccc(-c4ccc(F)c(O[C@@H](C)Cn5cnnn5)c4)nn23)c1C#N", "note": "[compound 212]", "IC50": "< 10"}
{"smiles": "C[C@@H](Cn1cnnn1)Oc1cc(-c2ccn3ncc(-c4ccnn4C)c3n2)ccc1F", "note": "[compound 24]", "IC50": "10 to 100"}
{"smiles": "CC(=O)NCCCOc1cccc(-c2cnc3ccc(-c4ccc(F)c(O[C@@H](C)Cn5cnnn5)c4)nn23)c1C#N", "note": "[compound 204]", "IC50": "< 10"}
{"smiles": "COc1ccnc(-c2cnc3ccc(-c4cc(O[C@@H](C)Cn5cnnn5)ccn4)nn23)c1C#N", "note": "[compound 486]", "IC50": "10 to 100"}
{"smiles": "COCCOc1ccc(-c2cnn3ccc(-c4ccc(F)c(O[C@@H](C)Cn5cnnn5)c4)nc23)cc1", "note": "[compound 44]", "IC50": "10 to 100"}
{"smiles": "C[C@@H](Cn1cnnn1)Oc1cccc(-c2ccn3ncc(-c4cccc(C(=O)NCCCCO)c4)c3n2)c1", "note": "[compound 79]", "IC50": "< 10"}
{"smiles": "C[C@@H](Cn1cnnn1)Oc1cc(-c2ccn3ncc(-c4cccc(OCC#N)c4)c3n2)ccc1F", "note": "[compound 33]", "IC50": "< 10"}
{"smiles": "C[C@@H](Cn1cnnn1)Oc1cccc(-c2ccn3ncc(-c4cccc(C(=O)NCCc5ccccc5)c4)c3n2)c1", "note": "[compound 105]", "IC50": "10 to 100"}
{"smiles": "C[C@@H](Cn1cnnn1)Oc1cc(-c2ccc3ncc(-c4cccc(OCC5CCOCC5)c4C#N)n3n2)ccc1F", "note": "[compound 203]", "IC50": "< 10"}
{"smiles": "C[C@@H](Cn1cnnn1)Oc1cccc(-c2ccn3ncc(-c4cccc(C(=O)NC5CCN(C)C5)c4)c3n2)c1", "note": "(stereo partly drawn) [compound 88]", "IC50": "< 10"}
{"smiles": "C[C@@H](Cn1cnnn1)Oc1cc(-c2ccc3ncc(-c4cccc(OCCCN5CCOCC5)c4C#N)n3n2)ccc1F", "note": "[compound 171]", "IC50": "< 10"}
{"smiles": "C[C@@H](Cn1cnnn1)Oc1cccc(-c2ccn3ncc(-c4cccc(C(=O)N5CCn6ncnc6C5)c4)c3n2)c1", "note": "[compound 110]", "IC50": "10 to 100"}
{"smiles": "C[C@@H](Cn1cnnn1)Oc1cc(-c2ccn3ncc(-c4ccccc4OC(F)(F)F)c3n2)ccc1F", "note": "[compound 45]", "IC50": "10 to 100"}
{"smiles": "C[C@@H](Cn1cnnn1)Oc1cc(-c2ccc3ncc(-c4cccc(OCCC5CCNCC5)c4C#N)n3n2)ccc1F", "note": "[compound 208]", "IC50": "< 10"}
{"smiles": "C[C@@H](Cn1cnnn1)Oc1cccc(-c2ccn3ncc(-c4cccc(C(=O)NCCN5CCOCC5)c4)c3n2)c1", "note": "[compound 67]", "IC50": "< 10"}
{"smiles": "Cc1ncc(-c2cnn3ccc(-c4ccc(F)c(O[C@@H](C)Cn5cnnn5)c4)nc23)s1", "note": "[compound 141]", "IC50": "< 10"}
{"smiles": "CC(=O)NC1CCN(C(=O)c2cccc(-c3cnn4ccc(-c5cccc(O[C@@H](C)Cn6cnnn6)c5)nc34)c2)CC1", "note": "[compound 73]", "IC50": "10 to 100"}
{"biological_target": "T1, human CaMKIIδ", "test": "Evaluation of in vitro CaMKII inhibitory activity (binding assay, TR-FRET)", "settings": "in vitro CaMKII inhibitory activity (binding assay), human CaMKIIδ; read-out: Act", "procedure": "as §1, §2, §3, §4, §5, §6", "units": {"IC50": "nM"}}
{"smiles": "C[C@@H](Cn1cnnn1)Oc1cccc(-c2ccc3ncc(-c4nccc(OCC(F)(F)F)c4C#N)n3n2)c1", "note": "[compound 344]", "IC50": "< 10"}
{"smiles": "COc1cncc(-c2cnc3ccc(-c4ccc(F)c(O[C@@H](C)Cn5cnnn5)c4)nn23)c1C#N", "note": "[compound 470]", "IC50": "< 10"}
{"smiles": "COc1ncc(C)cc1-c1cnc2ccc(-c3cccc(O[C@@H](C)Cn4cnnn4)c3)nn12", "note": "[compound 327]", "IC50": "< 10"}
{"smiles": "C[C@@H](Cn1cnnn1)Oc1cccc(-c2ccc3ncc(-c4cccn(C)c4=O)n3n2)c1", "note": "[Example 253, 1-methyl-3-[6-(3-{[(2S)-1-(1H-tetrazol-1-yl)propan-2-yl]oxy}phenyl)imidazo[1,2-b]pyridazin-3-yl]-1,2-dihydropyridin-2-one]", "IC50": "< 10"}
{"smiles": "C[C@@H](Cn1cnnn1)Oc1cc(-c2ccc3ncc(-c4[nH]ccc(=O)c4C#N)n3n2)ccc1F", "note": "[compound 431, 2-[6-(4-fluoro-3-{[(2S)-1-(1H-tetrazol-1-yl)propan-2-yl]oxy}phenyl)imidazo[1,2-b]pyridazin-3-yl]-4-oxo-1,4-dihydropyridine-3-carbonitrile]", "IC50": "> 100"}
{"smiles": "C[C@@H](Cn1cnnn1)Oc1cccc(-c2ccc3ncc(-c4cccn(CC(F)F)c4=O)n3n2)c1", "note": "[compound 340]", "IC50": "< 10"}
{"smiles": "COc1ccnc(-c2cnc3ccc(-c4cccc(O[C@@H](C)Cn5cnnn5)n4)nn23)c1C#N", "note": "[compound 414]", "IC50": "10 to 100"}
{"smiles": "C[C@@H](Cn1cnnn1)Oc1cccc(-c2ccc3ncn(-c4cc(F)ccc4C#N)c3n2)n1", "note": "[Example 345, 4-fluoro-2-[5-(6-{[(2S)-1-(1H-tetrazol-1-yl)propan-2-yl]oxy}pyridin-2-yl)-3H-imidazo[4,5-b]pyridin-3-yl]benzonitrile]", "IC50": "< 10"}
{"smiles": "C[C@@H](Cn1cnnn1)Oc1cccc(-c2ccc3ncc(-c4nccc(N5CCCC5)c4C#N)n3n2)c1", "note": "[compound 363]", "IC50": "10 to 100"}
{"smiles": "C[C@@H](Cn1cnnn1)Oc1cccc(-c2ccc3ncc(-c4nnccc4C#N)n3n2)c1", "note": "[compound 280]", "IC50": "< 10"}
{"smiles": "COCCn1cccc(-c2cnc3ccc(-c4cccc(O[C@@H](C)Cn5cnnn5)c4)nn23)c1=O", "note": "[compound 254]", "IC50": "< 10"}
{"smiles": "C[C@@H](Cn1cnnn1)Oc1cccc(-c2ccc3ncc(-c4nccc(C(F)F)c4C#N)n3n2)n1", "note": "[compound 457]", "IC50": "10 to 100"}
{"smiles": "COc1nccnc1-c1cnc2ccc(-c3ccc(F)c(O[C@@H](C)Cn4cnnn4)c3)nn12", "note": "[compound 268]", "IC50": "10 to 100"}
{"smiles": "C[C@@H](Cn1cnnn1)Oc1cccc(-c2ccc3ncc(-c4[nH]c(=O)ccc4C#N)n3n2)c1", "note": "[compound 364]", "IC50": "< 10"}
{"smiles": "C[C@@H](Cn1cnnn1)Oc1cccc(-c2ccc3ncc(-c4cnccc4C#N)n3n2)n1", "note": "[compound 415]", "IC50": "< 10"}
{"smiles": "C[C@@H](Cn1cnnn1)Oc1cccc(-c2ccc3ncc(-c4nccc(C(F)F)c4C#N)n3n2)c1", "note": "[compound 401]", "IC50": "< 10"}
{"smiles": "C[C@@H](Cn1cnnn1)Oc1cc(-c2ccc3ncc(-c4ccsc4C(=O)O)n3n2)ccc1F", "note": "[compound 243]", "IC50": "> 100"}
{"smiles": "Cc1cc(-c2cnc3ccc(-c4cccc(O[C@@H](C)Cn5cnnn5)c4)nn23)c(C#N)cn1", "note": "[compound 333]", "IC50": "< 10"}
{"smiles": "C[C@@H](Cn1cnnn1)Oc1cccc(-c2ccc3ncc(-c4cnccn4)n3n2)c1", "note": "[compound 283]", "IC50": "< 10"}
{"smiles": "C[C@@H](Cn1cnnn1)Oc1cccc(-c2ccc3ncc(-c4cccn(CCOCC(F)(F)F)c4=O)n3n2)c1", "note": "[compound 341]", "IC50": "< 10"}
{"smiles": "C[C@@H](Cn1cnnn1)Oc1cc(-c2ccc3ncc(-c4cccc(N=S5(=O)CCCC5)c4C#N)n3n2)ccc1F", "note": "[compound 258]", "IC50": "< 10"}
{"smiles": "C[C@@H](Cn1cnnn1)Oc1cc(-c2ccc3ncc(-c4cc(=O)[nH]cc4C#N)n3n2)ccc1F", "note": "[compound 241]", "IC50": "< 10"}
{"smiles": "C[C@@H](Cn1cnnn1)Oc1cnnc(-c2ccc3ncc(-c4cc(F)ccc4C#N)n3n2)c1", "note": "[Example 298, 4-fluoro-2-[6-(5-{[(2S)-1-(1H-tetrazol-1-yl)propan-2-yl]oxy}pyridazin-3-yl)imidazo[1,2-b]pyridazin-3-yl]benzonitrile]", "IC50": "10 to 100"}
{"smiles": "C[C@@H](Cn1cnnn1)Oc1cccc(-c2ccn3ncc(-c4cc(F)ccc4C#N)c3n2)n1", "note": "[Example 416, 4-fluoro-2-[5-(6-{[(2S)-1-(1H-tetrazol-1-yl)propan-2-yl]oxy}pyridin-2-yl)pyrazolo[1,5-a]pyrimidin-3-yl]benzonitrile]", "IC50": "< 10"}
{"smiles": "C[C@@H](Cn1cnnn1)Oc1cccc(-c2ccc3ncc(-c4nccnc4C#N)n3n2)c1", "note": "[compound 262]", "IC50": "< 10"}
{"smiles": "COc1ccnc(-n2cnc3ccc(-c4cccc(O[C@@H](C)Cn5cnnn5)c4)nc32)c1C#N", "note": "[compound 353]", "IC50": "< 10"}
{"smiles": "C[C@@H](Cn1cnnn1)Oc1cccc(-c2ccc3ncc(-c4ccc(F)cc4C#N)n3n2)n1", "note": "[compound 418]", "IC50": "10 to 100"}
